Where two headings read alike, the source gives them in different places.
What was measured:
[1] = system: Myzus persicae; experiment: Myzus persicae - sachet test; format: in vivo; conditions: 100% = all animals killed
Summary of the method: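 Green peach aphids feed through a sealed sachet on nutrient medium containing the water-diluted formulation (solvents: 2% N-methylpyrrolidone, 2% diacetone alcohol). Percent mortality read after the chosen time; 100% means all animals killed.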

[2] = log P determination by LC-MS in the acidic range; format: physicochemical; conditions: for chromatographic logP: reversed-phase HPLC column (C18)
From the text: The LC-MS determination in the acidic range is effected at pH 2.7 using 0.1% aqueous formic acid and acetonitrile (contains 0.1% formic acid) as eluents, linear gradient from 10% acetonitrile to 95% acetonitrile. Alternatively, the determination is effected in the acidic range at pH 2.3 using 0.1% aqueous phosphoric acid and acetonitrile as eluents; linear gradient from 10% acetonitrile to 95% acetonitrile.

[3] = application rate of 30 ppm in nutrient medium
[4] = Table 3, HPLC on reversed-phase column (C 18), 55° C., acidic range (pH 2.7 or pH 2.3)
[5] = application rate of 6 ppm in nutrient medium
[6] = Table 2, compounds of the formula (I-2), acidic range pH 2.7 or pH 2.3

| log P (acid) ([2]; LC-MS in the acidic range) | SMILES | efficacy (kill in %) [1, 3] | efficacy (kill in %) [1, 5] | also measured |
| --- | --- | --- | --- | --- |
| 3.26 | Cc1cc(N(Cc2nc(-c3ccccc3)no2)C(=O)c2cccnc2)nn1Cc1nc(-c2ccccc2)no1 [Compound I-1-305] | 100% |  |  |
| 2.13 | Cc1cc(NC(=O)c2cncc(F)c2)nn1C(C)(C)C [Compound I-1-348] | 80% |  |  |
| 2.12 | Cc1cc(NC(=O)c2cccnc2)nn1C(=O)NCc1ccc(F)cc1 [Compound I-1-328] | 100% | 100% |  |
| 1.05 | Cc1cc(NC(=O)c2cccnc2)nn1C(=O)NCc1ccncn1 [Compound I-1-336] | 100% | 100% |  |
| 1.4 | Cc1cc(NC(=O)c2cncc(Cl)c2)nn1Cc1ncccn1 [Compound I-1-276] | 100% | 100% |  |
| 1.61 | Cc1cc(NC(=O)c2cccnc2)nn1Cc1ccc2nsnc2c1 [Compound I-1-339] | 100% |  |  |
| 1.97 | Cc1cc(NC(=O)c2cccnc2)nn1C(=O)NCc1ccccc1 [Compound I-1-322] | 100% | 100% |  |
| 2.39 | Cc1cc(NC(=O)c2cccnc2)nn1C(=O)NCc1cccc(Cl)c1 [Compound I-1-324] | 100% | 100% |  |
| 2.34 | Cc1cc(NC(=O)c2cccnc2)nn1C(=O)NCc1ccc(Cl)cc1 [Compound I-1-325] | 100% | 100% |  |
| 2.1 | O=C(Nc1cc(Cl)n(-c2ccccc2)n1)c1cccnc1 [Compound I-1-274] | 100% |  |  |
| 0.92 | Cc1noc(Cn2nc(NC(=O)c3cccnc3)cc2C)n1 [Compound I-1-284] | 100% | 100% |  |
| 2.01 | Cc1cc(NC(=O)c2cccnc2)nn1Cc1nc(-c2ccccc2)no1 [Compound I-1-300] | 100% | 100% |  |
| 2.22 | Cc1cc(NC(=O)c2cccnc2)nn1C(=O)NC(C)c1ccccc1 (centres unmarked) [Compound I-1-331] | 100% | 100% |  |
| 1.92 | CCCCNC(=O)n1nc(NC(=O)c2cccnc2)cc1C [Compound I-1-315] | 100% | 100% |  |
| 1.66 | Cc1cc(NC(=O)c2cccnc2)nn1Cc1ccc2ccccc2n1 [Compound I-1-341] | 100% | 100% |  |
| 2.04 | Cc1cc(NC(=O)c2cccnc2)nn1C(=O)NCc1ccccc1F [Compound I-1-326] | 100% | 100% |  |
| 2.18 | Cc1cc(NC(=O)c2cncc(F)c2)nn1-c1ccccc1 [Compound I-1-350] | 80% |  |  |

More lines, now with the values behind:

| SMILES | log P (acid) ([2]; LC-MS in the acidic range) | efficacy (kill in %) [1, 3] | efficacy (kill in %) [1, 5] | also measured |
| --- | --- | --- | --- | --- |
| Cc1cc(NC(=O)c2cnc(Cl)c(Cl)c2)nn1Cc1ccccc1 [Compound I-1-100] | 3.18 | 100% |  |  |
| Cc1nn(-c2ncccc2Cl)nc1NC(=O)c1cccnc1 [Compound I-3-9] |  | 100% |  | log P (acid) [2, 4]: 1.24 |
| Cn1ncc(NC(=O)c2cccnc2)n1 [Compound I-3-2] |  | 100% |  | log P (acid) [2, 4]: 0.38 |
| Cc1cc(NC(=O)c2cccnc2)nn1C(=O)NCCOc1c(F)cccc1F [Compound I-1-171] | 2.21 | 100% | 80% |  |
| O=C(Nc1cc(C2CC2)n(Cc2ccccc2)n1)c1cccnc1 [Compound I-1-56] | 2.1 | 100% |  |  |
| Cc1cc(NC(=O)c2cccnc2)nn1CC=C(Cl)Cl [Compound I-1-238] | 1.83 | 100% | 100% |  |
| CSc1nc(NC(=O)c2cccnc2)nn1C [Compound I-2-26] |  | 100% |  | log P (acid) [2, 6]: 0.32 |
| Cc1cc(NC(=O)c2cccnc2)nn1Cn1nc(C)n(C2CC2)c1=O [Compound I-1-146] | 1.05 | 100% | 100% |  |
| Cc1ccc(C(=O)Nc2cc(C)n(Cc3ccccc3)n2)cn1 [Compound I-1-80] | 1.71 | 100% | 80% |  |
| Cc1cc(NC(=Nc2ccc(Cl)cc2Cl)c2cccnc2)nn1C [Compound I-1-232] | 1.77 | 100% |  |  |
| O=C(Nc1ccn(Cc2ncc(C(F)(F)F)cc2Cl)n1)c1cccnc1 [Compound I-1-116] | 1.86 | 100% | 100% |  |
| O=C(Nc1nn(-c2ncccc2Cl)nc1C(F)(F)F)c1cccnc1 [Compound I-3-6] |  | 100% |  | log P (acid) [2, 4]: 1.89 |
| Cc1cc(NC(=O)c2cncc(Br)c2)nn1Cc1ccc(F)cc1 [Compound I-1-83] | 2.67 | 100% |  |  |
| CNS(=O)(=O)n1nc(NC(=O)c2cccnc2)cc1C [Compound I-1-257] | 0.55 | 100% |  |  |
| Cn1cnc(NC(=O)c2cccnc2)n1 [Compound I-2-14] |  | 100% |  | log P (acid) [2, 6]: <−0.23 |
| Cc1cc(N(C)C(=O)c2cccnc2)nn1CC1CC1 [Compound I-1-177] | 1.27 | 100% |  |  |
| Cc1cc(NC(=O)c2cccnc2)nn1CC1COc2ccccc2O1 (centres unmarked) [Compound I-1-157] | 1.99 | 100% |  |  |
| Cc1cc(NC(=O)c2cccnc2)nn1C(=O)N(C)S(=O)(=O)c1ccccc1 [Compound I-1-263] | 2.13 | 100% | 100% |  |

| SMILES | log P (acid) ([2]; LC-MS in the acidic range) | efficacy (kill in %) [1, 3] | efficacy (kill in %) [1, 5] | also measured |
| --- | --- | --- | --- | --- |
| O=C(Nc1ccn(Cc2cccc(F)c2)n1)c1cccnc1 [Compound I-1-70] | 1.59 | 100% |  |  |
| O=C(Nc1nnn(Cc2ccc(Cl)nc2)n1)c1cccnc1 [Compound I-4-3] |  | 100% | 100% | log P (acid) ([2]; Table 4, HPLC on reversed-phase column (C 18), 55° C., acidic range (pH 2.7 or pH 2.3)): 1.05 |
| Cc1cc(NC(=O)c2cccnc2)nn1-c1ccc(Cl)cc1 [Compound I-1-209] | 2.09 | 100% | 80% |  |
| CSCCCNC(=O)n1nc(NC(=O)c2cccnc2)cc1C [Compound I-1-165] | 1.7 | 100% | 100% |  |
| COc1cc(OC)nc(Cn2nc(NC(=O)c3cccnc3)cc2C)n1 [Compound I-1-53] | 1.59 | 100% | 100% |  |
| COc1cccc(Cn2ccc(NC(=O)c3cccnc3)n2)c1 [Compound I-1-74] | 1.57 | 100% | 100% |  |
| N#Cc1ccccc1Cn1ccc(NC(=O)c2cccnc2)n1 [Compound I-1-89] | 1.37 | 100% | 100% |  |
| Cc1cccc(Cn2ccc(NC(=O)c3cccnc3)n2)c1 [Compound I-1-72] | 1.83 | 100% | 100% |  |
| Cc1cn(CC#N)nc1NC(=O)c1cccnc1 [Compound I-1-199] | 0.37 | 100% |  |  |
| O=C(Nc1cc(C2CC2)n(Cc2ccc(Cl)nc2)n1)c1cccnc1 [Compound I-1-29] | 1.77 | 100% | 100% |  |
| Cc1nc(NC(=O)c2cccnc2)n[nH]1 [Compound I-2-1] |  | 100% |  | log P (acid) [2, 6]: <−0.23 |
| Cc1cc(NC(=O)c2cccnc2)nn1Cn1c(=O)n(C)c(=O)n1C [Compound I-1-145] | 0.82 | 100% |  |  |
| O=C(Nc1cnn(-c2ccc(C(F)(F)F)cn2)n1)c1cccnc1 [Compound I-3-14, N-{2-[5-(Trifluoromethyl)pyridin-2-yl]-2H-1,2,3-triazol-4-yl}nicotinamide] |  |  |  | pest or weed control at 6 ppm ([1]; Myzus persicae, application rate of 6 ppm in nutrient medium, read-out: efficacy (kill in %)): 100%; pest or weed control at 30 ppm ([1]; Myzus persicae, application rate of 30 ppm in nutrient medium, read-out: efficacy (kill in %)): 100%; chromatographic logP ([2]; pH 2.7, Table 3, HPLC on reversed-phase column (C 18), 55° C., acidic range (pH 2.7 or pH 2.3), read-out: log P (acid)): 1.91; chromatographic logP ([2]; pH 2.7, values given in the synthesis examples and NMR lists, read-out: HPLC-MS: log P): 1.91 |
| O=C(Nc1ccn(Cc2ccc(F)cc2F)n1)c1cccnc1 [Compound I-1-76] | 1.68 | 100% | 100% |  |
| Cc1cc(NC(=O)c2cncnc2)nn1Cc1ccccc1 [Compound I-1-66] | 1.76 | 100% |  |  |
| COc1ccc(Cn2ccc(NC(=O)c3cccnc3)n2)cc1 [Compound I-1-78] | 1.55 | 100% |  |  |
| Cc1cc(NC(=O)c2cccnc2)nn1Cc1cn2cc(F)ccc2n1 [Compound I-1-159] | 0.66 | 100% | 100% |  |

Source: US20160106102A1, “KNOWN AND NEW HETEROCYCLIC COMPOUNDS AS PEST CONTROL AGENTS” (BAYER CROPSCIENCE AKTIENGESELLSCHAFT, priority 2013, published 2016)
